Test results as given in patent US5712274A, “Thienotriazolodiazepine compounds and their pharmaceutical use” (Yoshitomi Pharmaceutical Industries, Ltd., priority 1995, dated 1998).

Experiments:
CD11b = experiment: Effect on CD11b expression in human histiocytic leukemia cell line, U937 cells (PDB-induced); assay type: cell-based; conditions: U-937, 72 h, U937 cells, PDB 10 ng/ml, 3 days, read-out: Inhibitory effect on CD11b expression (IC50)
Experimental: Effect on CD11b expression human histiocytic leukemia cell line, U937 cells
Effect on the expression of CD11b antigen, which is the α chain of an adhesion molecule, Mac-1 expressing on the surface of leukocytgic cells, was investigated. U937 cells were suspended in RPMI1640 medium containing 20% fetal calf serum (FCS), plated with phorbol 12,13-dibutyrate (PDB, 10 ng/ml) into 96-well filtration plates, and cultured for 3 days at 37° C. in 5% CO2. After the cells were washed once with RPMI1640 medium, rat anti-human CD11b antibody (2 μg/ml) was added to each well and the plates were incubated for 1 hr on ice. After the cell were washed twice, peroxidase-conjugated anti-rat immunoglobulin antibody (1 μg/ml) was added, and the cells were incubated for 1 hr on ice. After the cells were washed 3 times, substrate for peroxidase (o-phenylenediamine) was added. After the plates were stood for 15 min at room temperature, absorbance at 490 nm was measured with a 96-well microplate reader and was regarded as a indicator of CD11b antigen expression.

VCAM-1 = experiment: Inhibitory effect on TNF-α-induced expression of VCAM-1 in HUVECs; assay type: cell-based; conditions: Homo sapiens, HUVEC; HUVECs, TNF-α 20 U/ml, 5 hr; read-out: Inhibitory effect (IC50) on CAM-1 expression
Experimental: (§1) Inhibitory effect on expression of VCAM-1 and ELAM-1 in human umbilical vein-derived endothelial cells (HUVECs)
(§2) HUVECs were suspended in 199 medium containing 20% FCS, 20 μg/ml endothelial cell growth factor derived from bovine brain, and 100 μg/ml heparin, plated into 96-well microculture plates coated with collagen, and cultured at 37° C. in 5% CO2. When cells were grown to confluence, the cells received tumour necrosis factor (TNF)-α (20 U/ml for VCAM-1 expression, 100 U/ml for ELAM-1 expression) and cultured for 5 hr. After the cells were washed once with 199 medium, mouse anti-human VCAM-1 monoclonal antibody (2 μg/ml) or rat anti-human ELAM-1 monoclonal antibody (2 μg/ml) was added, and the cells were incubated for 1 hr at room temperature. After the cells were washed twice, peroxidase-conjugated anti-mouse immunoglobulin antibody or anti-rat immunoglobulin antibody was added, and the cells were incubated for 1 hr at room temperature. After the cells were washed 3 times, 2,2'-azino-bis(3-ethylbenzothiazolone-6-sulfonic acid) was added. After the plates were stood for 15 min at room temperature, absorbance at 405 nm with a reference wave length of 490 nm was measured with a 96-well microplate reader and was regarded as a indicator of VCAM-1 or ELAM-1 expression.

ELAM-1 = experiment: Inhibitory effect on TNF-α-induced expression of ELAM-1 in HUVECs; assay type: cell-based; conditions: Homo sapiens, HUVEC; HUVECs, TNF-α 100 U/ml, 5 hr; read-out: Inhibitory effect (IC50) on ELAM-1 expression
Experimental: as §1, §2

[1] = system: oxazolone-induced ear edema; experiment: Effect on oxazolone-induced ear edema in mice; assay type: in vivo; conditions: sensitized mice, 24 hr after challenge
Experimental: Effect on oxazolone-induced ear edema in mice.
Mice were sensitized by applying 50 μl of oxazolone solution (50 mg/ml in acetone) to their shaved abdomen on day 0. On day 7, 5 μl of oxazolone solution was applied to each surface of the right ear. After 24 hr (day 8), the right and left ears were cut off with a puncher of 6 mm in diameter and weighed with an electronic reading balance. The difference in weight between the oxazolone-treated ear (right) and untreated ear (left) was taken to reflect the extent of ear edema. Test compounds were suspended in 0.5% hydroxypropylmethycellulose solution and administered p.o. (0.1 ml/10 g body weight) on days 0 to 4 (once a day) and day 7 (twice a day).

[2] = system: lipopolysaccharide (LPS)-induced adhesion of leukocytes; experiment: Effect on lipopolysaccharide (LPS)-induced adhesion of leukocytes; assay type: in vivo, BALB/c mice; conditions: 6 hr after LPS
Source text: Effect on lipopolysaccharide (LPS)-induced adhesion of leukocytes
It has been reported that, by the administration of LPS to mice, an adhesion molecule, Mac-1-dependent leukocyte adhesion is induced, the leukocytes infiltrate into lung, liver and so on, and in result the number of peripheral blood leukocytes reduces (Morisaki et al., Clin. Immunol. Immunopathol., 61, 365-375, 1991). The effect on LPS-induced leukocyte adhesion was investigated by taking the reduction of peripheral blood leukocytes as an indicator of leukocyte adhesion.
LPS solution (50 ng/ml in saline, 0,5 ml/mouse) was injected into peritoneal cavity of BALB/c mice on day 0. Six hr after the LPS injection, the number of peripheral blood leukocytes was counted with an automatic blood cell counter. Test compounds were suspended in 0.5% hydroxypropylmethylcellulose solution and administered p.o. (0.1 ml/10 g body weight) on days -4 to 0.

TNBS-induced colitis = experiment: Effect on TNBS-induced colitis model in rats (oral administration); assay type: in vivo, SD rats; conditions: for Intestinal weight (mean ± S.D.) / MPO activity (mean ± S.D.): TNBS, 7 days
Experimental: Effect on trinitrobenzenesufonic acid (TNBS)-induced colitis model in rats
Colitis was induced by intrarectal injection of TNBS solution (60 mg/ml in 50% EtOH, 500 μl/rat) to SD rats. Seven days later, rats were sacrificed and large intestine (8 cm from anus) was cut off and weighed. Myeloperoxidase (MPO) activity in the intestinal tissue was measured as follows and taken as an indicator of leukocyte infiltration: the intestinal tissue was homogenized and a cycle of freeze-thawing of the tissue was repeated 3 times. The supernatant obtained by centrifugation was assayed for MPO activity with substrate for peroxidase (o-phenylenediamine). MPO activity in the supernatant was calculated with the commercial MPO as a standard. The increases in intestinal weight and MPO activity as described above were taken as indicators of colitis. Test compound was suspended in 0.5% hydroxypropylmethylcellulose solution and administered p.o. (0.1 ml/10 g body weight) for 5 days beginning on the day of TNBS injection.

glomerulonephritis = experiment: Effect on glomerulonephritis in mice (anti-GBM antiserum); assay type: in vivo, female C57BL/6 mice; conditions: 12 days after anti-GBM antiserum, 0-5 points
Experimental: Effect on glomerulonephritis in mice
Rabbit immunoglobulin G solution (4 mg/ml in saline) was mixed with Freund's complete adjuvant at a ratio of 1:1 and the emulsion was prepared. The emulsion was injected into peritoneal cavity of female C57BL/6 mice (0.25 ml/mouse). After 5 days, rabbit anti-mouse glomerular basement membrane (GBM) antiserum obtained by the method of Nagai et al. (Japan. J. Pharmacol., 32, 1117, 1982) was administered i.v. (0.08 ml/mouse). […] Test compounds were suspended in 0.5% hydroxypropylmethylcellulose (HPMC) solution and administered p.o. (0.1 ml/10 g body weight) for 13 days beginning on the day of anti-GBM ant-serum injection.

CNC(=O)C[C@@H]1N=C(c2ccc(Cl)cc2)c2c(sc(C)c2C)-n2c(C)nnc21 [Example 1, (S)-N-methyl-4-(4-chloro-phenyl)-2,3,9-trimethyl-6H-thieno[3,2-f][1,2,4]triazolo[4,3-a]-[1,4]diazepine-6-acetamide 1/4 hydrate]
IC50 (CD11b): 260 nM | IC50 (VCAM-1): 25 nM | IC50 (ELAM-1): 52 nM | Increase in ear weight (mean ± S.D.) ([1]; 0.1 mg/kg p.o.): 16.3 ± 1.0 mg | Increase in ear weight (mean ± S.D.) ([1]; 0.3 mg/kg p.o.): 15.0 ± 0.6 mg | Increase in ear weight (mean ± S.D.) ([1]; 1 mg/kg p.o.): 14.2 ± 0.8 mg | Number of peripheral blood leukocytes (mean ± S.D.) ([2]; 0.3 mg/kg/day p.o.): 32 ± 5 × 100/μl | Number of peripheral blood leukocytes (mean ± S.D.) ([2]; 1 mg/kg/day p.o.): 50 ± 15 × 100/μl | Number of peripheral blood leukocytes (mean ± S.D.) ([2]; 3 mg/kg/day p.o.): 61 ± 13 × 100/μl | Intestinal weight (mean ± S.D.) (TNBS-induced colitis; 0.3 mg/kg/day p.o.): 1328.6 ± 1411.4 mg | MPO activity (mean ± S.D.) (TNBS-induced colitis; 0.3 mg/kg/day p.o.): 1.389 ± 2.806 U/ml | Intestinal weight (mean ± S.D.) (TNBS-induced colitis; 1 mg/kg/day p.o.): 574.2 ± 93.1 mg | MPO activity (mean ± S.D.) (TNBS-induced colitis; 1 mg/kg/day p.o.): 0.221 ± 0.020 U/ml | Effect on intestinal weight and leukocyte infiltration in colitis (in words) (TNBS-induced colitis; p.o., Tables 6A and 6B): significantly inhibit the increase in intestinal weight and the leukocyte infiltration caused by colitis in rats | Score (mean ± S.D.) of protein level in urine (glomerulonephritis; 1 mg/kg/day p.o.): 2.56 ± 0.53 | Score (mean ± S.D.) of protein level in urine (glomerulonephritis; 3 mg/kg/day p.o.): 2.22 ± 0.67
